Some results are limits rather than exact numbers.

The subject of one data set is A549. Kind of data set: Growth inhibition of human A549 cells. The class given is functional.
Data set [1] in a line: Metabolic stability in mouse microsomes assessed as half life. The data set is classed as ADME, Microsome.
Data set [2] deals with Cell division cycle 7-related protein kinase (Homo sapiens, UniProt O00311). The data set is described as follows: Inhibition of CDC7-DBF4.
Chain of Cell division cycle 7-related protein kinase (O00311 whole entry): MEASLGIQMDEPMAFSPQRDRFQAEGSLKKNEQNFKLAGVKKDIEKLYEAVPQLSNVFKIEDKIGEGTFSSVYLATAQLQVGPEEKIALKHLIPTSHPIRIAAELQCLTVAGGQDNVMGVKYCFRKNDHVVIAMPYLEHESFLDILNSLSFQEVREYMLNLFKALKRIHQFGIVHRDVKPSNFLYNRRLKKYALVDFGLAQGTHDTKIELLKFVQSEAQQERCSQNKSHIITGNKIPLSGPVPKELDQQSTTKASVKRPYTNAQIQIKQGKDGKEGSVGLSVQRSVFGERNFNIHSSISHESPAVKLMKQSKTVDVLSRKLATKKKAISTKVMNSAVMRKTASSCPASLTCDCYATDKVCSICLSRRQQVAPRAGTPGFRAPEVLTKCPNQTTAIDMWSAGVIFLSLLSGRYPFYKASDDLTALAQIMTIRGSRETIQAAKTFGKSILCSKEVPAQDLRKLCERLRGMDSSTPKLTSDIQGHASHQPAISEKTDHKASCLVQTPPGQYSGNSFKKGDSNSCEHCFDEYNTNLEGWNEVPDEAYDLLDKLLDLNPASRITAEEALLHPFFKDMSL

Turning to `O=c1nc(-c2ccc(O)cc2)cc(-c2ccccc2)[nH]1`, in the data set on A549, the GI50 is more than 10000 nM. Further, the half-life in data set [1] turned out to be 4 min. In addition, the IC50 in data set [2] was 30 nM.
`O=c1nc(-c2ccc3[nH]ncc3c2)cc(-c2cccc(OCc3ccccc3)c2)[nH]1` had an IC50 in data set [2] of 6 nM.
Molecule `O=c1nc(-c2ccc3[nH]ncc3c2)cc(-c2ccc(OCc3ccccc3)cc2)[nH]1` came in with a half-maximal inhibitory concentration (IC50) in data set [2] of 350 nM. This IC50 is about 58-fold higher than that of the molecule before.
The same measure, in the same setting: as for `COc1ccc(-c2cc(-c3ccnc(N(C)C)c3)nc(=O)[nH]2)c(OC)c1`, the figure is 7300 nM.
Consider `Cc1cc(-c2cc(-c3ccccc3)[nH]c(=O)n2)ccc1O`, for which the GI50 in the data set with A549 was more than 10000 nM.
In data set [2], `CCc1ccc(-c2cc(-c3ccc4n[nH]cc4c3)nc(=O)[nH]2)cc1` showed a half-inhibitory concentration (IC50) of 100 nM.
Same read-out and setting: as for `O=c1nc(-c2ccc3[nH]ncc3c2)cc(-c2ccc(N3CCNCC3)cc2)[nH]1`, the figure is 40 nM; as for `O=c1nc(-c2ccc3[nH]ncc3c2)cc(-c2ccccc2F)[nH]1`, 10 nM; as for `O=c1nc(-c2ccc3[nH]ncc3c2)cc(-c2cccc(F)c2)[nH]1`, 150 nM.
With `O=c1nc(-c2ccc3[nH]ncc3c2)cc(-c2cccc(C(F)(F)F)c2)[nH]1`, the midpoint of inhibition in data set [2], the IC50, lay at 110 nM.
Turning to `O=c1nc(-c2ccc3[nH]ncc3c2)cc(-c2cccc(Cl)c2)[nH]1`, growth in the data set with A549 was halved (GI50) at 600 nM. Moreover, in data set [2], the IC50 came to 5 nM.
In data set [2], `COc1ccc(-c2cc(-c3ccnc(N)c3)nc(=O)[nH]2)c(OC)c1` gave an IC50 of 1000 nM.
The same measure, in the same setting: as for `O=c1nc(-c2ccncc2)cc(-c2cccc(Cl)c2)[nH]1`, the figure is more than 13000 nM.

One may read the GI50 as the concentration at which growth is held to half of that of the control. Usually half-life stands for the time needed for the level to fall by half in the phase considered. By IC50 is commonly meant the midpoint of a concentration-inhibition curve.
